Laboratory results taken from patent US20190239509A1, “METHOD OF CONTROLLING PLANTS” (SYNGENTA PARTICIPATIONS AG, priority 2016, published 2019).

What was measured:
Format in all cases: in vivo
[1] = tested on: Amaranthus viridis (AMAVI); test: B2 drilled field trial Brazil, post-emergence, AMAVI; details: 100=total damage, 0=no damage; for AMAVI 7DAA Observed: 7 days after application; for AMAVI 30 DAA Observed: 30 days after application
Method: (§1) Seeds of a variety of test species were used in drilled field trials to look at the control of important weed species present in corn crops as well as the effect on soybean (a volunteer crop in corn). Trials were carried out in Brazil in the summer season.
(§2) Plot size was 10-12 m^2, and two replicates were carried out per treatment. Plants were treated post-emergence at the 4 leaf stage. Fungicides and insecticides were used as necessary for plant health. The test was evaluated at 7 and 30 days after application (Amaranthus viridis (AMAVI), Bidens pilosa (BIDPI), Euphorbia heterophylla (EPPHL)) and 9 and 37 days after application (Brachiaria plantaginea (BRAPL) and soybean (Glycine max GLXMA) with 100=total damage to plant and 0=no damage to plant.
(§3) Expected results were calculated using the Colby Formula.

[2] = tested on: Bidens pilosa (BIDPI); test: B2 drilled field trial Brazil, post-emergence, BIDPI; details: 100=total damage, 0=no damage; for BIDPI 7DAA Observed: 7 days after application; for BIDPI 30 DAA Observed: 30 days after application
Method: as §1, §2, §3

[3] = tested on: Euphorbia heterophylla (EPPHL); test: B2 drilled field trial Brazil, post-emergence, EPPHL; details: 100=total damage, 0=no damage; for EPPHL 7DAA Observed: 7 days after application; for EPPHL 30 DAA Observed: 30 days after application
Method: as §1, §2, §3

[4] = tested on: Brachiaria plantaginea (BRAPL); test: B2 drilled field trial Brazil, post-emergence, BRAPL; details: 100=total damage, 0=no damage; for BRAPL 9DAA Observed: 9 days after application; for BRAPL 37 DAA Observed: 37 days after application
Method: as §1, §2, §3

[5] = tested on: soybean (Glycine max GLXMA); test: B2 drilled field trial Brazil, post-emergence, soybean; details: 100=total damage, 0=no damage; for GLXMA 9DAA Observed: 9 days after application; for GLXMA 37 DAA Observed: 37 days after application
Method: as §1, §2, §3

[6] = tested on: Amaranthus retroflexus (AMARE); test: B3 drilled field trial Brazil, post-emergence, AMARE; details: 28 days after application, 100=total damage, 0=no damage
Method: (§4) Seeds of a variety of test species were used in drilled field trials to look at the control of important weed species present in corn crops as well as the effect on soybean (a volunteer crop in corn). Trials were carried out in Brazil in the summer season and the second season.
(§5) Plot size was 10-15 m^2, and two replicates were carried out per treatment. Plants were treated post-emergence between the 2 and 4 leaf stage. Species tested were Amaranthus retroflexus (AMARE), Ipomoea grandifolia (IAQGR), Digitaria horizontalis (DIGHO), Bidens pilosa (BIDPI), Eleusine indica (ELEIN), Brachiaria decumbens (BRADC), Centrus echinatus (CCHEC), Euphorbia heterophylla (EPPHL), Brachiaria plantaginea (BRAPL) and Glycine max (GLXMA; soybean). Fungicides and insecticides were used as necessary for plant health. The test was evaluated at 28 days after application with 100=total damage to plant and 0=no damage to plant.
as §3

[7] = tested on: Ipomoea grandifolia (IAQGR); test: B3 drilled field trial Brazil, post-emergence, IAQGR; details: 28 days after application
Method: as §4, §5, §3

[8] = tested on: Digitaria horizontalis (DIGHO); test: B3 drilled field trial Brazil, post-emergence, DIGHO; details: 28 days after application
Method: as §4, §5, §3

CCOC1C(O)N(c2cc(C(C)(C)C)on2)C(=O)N1C (stereo not drawn) [Compound 1.4]
AMAVI 7DAA Observed ([1]; 75 g ai/ha): 10
AMAVI 30 DAA Observed ([1]; 75 g ai/ha): 13
AMAVI 7DAA Observed ([1]; 100 g ai/ha): 20
AMAVI 30 DAA Observed ([1]; 100 g ai/ha): 20
AMAVI 7DAA Observed ([1]; 150 g ai/ha): 40
AMAVI 30 DAA Observed ([1]; 150 g ai/ha): 40
BIDPI 7DAA Observed ([2]; 75 g ai/ha): 8
BIDPI 30 DAA Observed ([2]; 75 g ai/ha): 8
BIDPI 7DAA Observed ([2]; 100 g ai/ha): 10
BIDPI 30 DAA Observed ([2]; 100 g ai/ha): 13
BIDPI 7DAA Observed ([2]; 150 g ai/ha): 28
BIDPI 30 DAA Observed ([2]; 150 g ai/ha): 20
EPPHL 7DAA Observed ([3]; 75 g ai/ha): 25
EPPHL 30 DAA Observed ([3]; 75 g ai/ha): 18
EPPHL 7DAA Observed ([3]; 100 g ai/ha): 30
EPPHL 30 DAA Observed ([3]; 100 g ai/ha): 25
EPPHL 7DAA Observed ([3]; 150 g ai/ha): 48
EPPHL 30 DAA Observed ([3]; 150 g ai/ha): 25
BRAPL 9DAA Observed ([4]; 75 g ai/ha): 18
BRAPL 37 DAA Observed ([4]; 75 g ai/ha): 0
BRAPL 9DAA Observed ([4]; 100 g ai/ha): 15
BRAPL 37 DAA Observed ([4]; 100 g ai/ha): 0
BRAPL 9DAA Observed ([4]; 150 g ai/ha): 23
BRAPL 37 DAA Observed ([4]; 150 g ai/ha): 0
GLXMA 9DAA Observed ([5]; 75 g ai/ha): 63
GLXMA 37 DAA Observed ([5]; 75 g ai/ha): 45
GLXMA 9DAA Observed ([5]; 100 g ai/ha): 55
GLXMA 37 DAA Observed ([5]; 100 g ai/ha): 0
GLXMA 9DAA Observed ([5]; 150 g ai/ha): 73
GLXMA 37 DAA Observed ([5]; 150 g ai/ha): 30
AMARE Second season Observed ([6]; 50 g ai/ha): 12
AMARE Summer season Observed ([6]; 50 g ai/ha): 73
AMARE Second season Observed ([6]; 75 g ai/ha): 14
AMARE Summer season Observed ([6]; 75 g ai/ha): 80
AMARE Second season Observed ([6]; 100 g ai/ha): 39
AMARE Summer season Observed ([6]; 100 g ai/ha): 90
AMARE Second season Observed ([6]; 150 g ai/ha): 52
AMARE Summer season Observed ([6]; 150 g ai/ha): 100
Observed damage (100=total damage to plant, 0=no damage) ([7]; Second season, 50 g ai/ha): 0
Observed damage (100=total damage to plant, 0=no damage) ([7]; Second season, 75 g ai/ha): 3
Observed damage (100=total damage to plant, 0=no damage) ([7]; Second season, 100 g ai/ha): 36
Observed damage (100=total damage to plant, 0=no damage) ([7]; Second season, 150 g ai/ha): 69
Observed damage (100=total damage to plant, 0=no damage) ([7]; Summer season, 50 g ai/ha): 33
Observed damage (100=total damage to plant, 0=no damage) ([7]; Summer season, 75 g ai/ha): 38
Observed damage (100=total damage to plant, 0=no damage) ([7]; Summer season, 100 g ai/ha): 68
Observed damage (100=total damage to plant, 0=no damage) ([7]; Summer season, 150 g ai/ha): 100
Observed damage (100=total damage to plant, 0=no damage) ([8]; Second season, 50 g ai/ha): 0
Observed damage (100=total damage to plant, 0=no damage) ([8]; Second season, 75 g ai/ha): 0
Observed damage (100=total damage to plant, 0=no damage) ([8]; Second season, 100 g ai/ha): 0
Observed damage (100=total damage to plant, 0=no damage) ([8]; Second season, 150 g ai/ha): 0
Observed damage (100=total damage to plant, 0=no damage) ([8]; Summer season, 50 g ai/ha): 23
